Data from patent US9493466B2, “Treatment of cancer with TOR kinase inhibitors” (Signal Pharmaceuticals, LLC, priority 2011, dated 2016).
“And” between values parts separate entries of the source, which are not always exact repeats. Equal entries are not always repeated.

How the values were obtained:
Test in all cases: Cell viability assay for NSCLC lines
Format in all cases: cell-based, human
[1] = tested on: NCI-H2030; settings: NCI-H2030, 3 days
Protocol: (§1) Cell Viability Assay for NSCLC Lines. Cell viability was assessed using the Cell Titer-Glo Luminescent Cell Viability from Promega. The assay is a homogenous method of determining the number of viable cells in culture based on quantitation of the adenosine triphosphate (ATP) present, an indicator of metabolically active cells. The homogenous assay procedure involves adding the single reagent (CellTiter-Glo Reagent) directly to cells cultured in serum-supplemented medium. Cells were plated into a 96-well flat bottom plate (Costar Catalog Number 33595) at densities that were previously optimized for each cell line. The cells were incubated overnight in 5% CO2 at 37° C. The following day, compound dilutions were prepared and all concentrations were assayed in triplicate. The cells were incubated with Compound 1 (0.03 μM, 0.1 μM, 0.3 μM, 1 μM, 3 μM, 10 μM and 30 μM for NSCLC cells) in 5% CO2 at 37° C. for 3 days. After a 3-day incubation period, 100 μL of CellTiter-Glo reagent was added to each well for 2 minutes with shaking and further incubated for 10 minutes (no shaking) at room temperature to stabilize the signal. The luminescence was measured on the VICTOR X2 multilabel plate reader. The percent growth inhibition was calculated using the DMSO control in the same plate (no compound) response as 100% cell growth. The average values from triplicates were plotted to obtain IC50 values using software XLfit from IDBS. The formula used for determining IC50 in XLfit was model number 205, which utilizes a 4 Parameter Logistic Model or Sigmoidal Dose-Response Model to calculate the IC50 values. All IC50 values are reported as an average from either two independent experiments or a single experiment.

[2] = tested on: NCI-H1563; settings: NCI-H1563, 3 days
Protocol: as §1

[3] = tested on: NCI-H727; settings: NCI-H727, 3 days
Protocol: as §1

[4] = tested on: NCI-H460; settings: NCI-H460, 3 days
Protocol: as §1

[5] = tested on: NCI-H2110; settings: NCI-H2110, 3 days
Protocol: as §1

[6] = tested on: NCI-H1975; settings: NCI-H1975, 3 days
Protocol: as §1

[7] = tested on: NCI-H549; settings: NCI-H549, 3 days
Protocol: as §1

[8] = tested on: NCI-H650; settings: NCI-H650, 3 days
Protocol: as §1

[9] = tested on: NCI-H1944; settings: NCI-H1944, 3 days
Protocol: as §1

[10] = tested on: NCI-H1755; settings: NCI-H1755, 3 days
Protocol: as §1

[11] = tested on: SK-LU-1; settings: SK-LU-1, 3 days
Protocol: as §1

[12] = tested on: NCI-H1650; settings: NCI-H1650, 3 days
Protocol: as §1

[13] = tested on: NCI-H520; settings: NCI-H520, 3 days
Protocol: as §1

[14] = tested on: NCI-H2444; settings: NCI-H2444, 3 days
Protocol: as §1

[15] = tested on: NCI-H2009; settings: NCI-H2009, 3 days
Protocol: as §1

[16] = tested on: NCI-H1993; settings: NCI-H1993, 3 days
Protocol: as §1

[17] = tested on: HOP62; settings: HOP62, 3 days
Protocol: as §1

[18] = tested on: NCI-H1568; settings: NCI-H1568, 3 days
Protocol: as §1

[19] = tested on: NCI-H23; settings: NCI-H23, 3 days
Protocol: as §1

[20] = tested on: NCI-H838; settings: NCI-H838, 3 days
Protocol: as §1

[21] = tested on: Calu-1; settings: Calu-1, 3 days
Protocol: as §1

[22] = tested on: NCI-H1299; settings: NCI-H1299, 3 days
Protocol: as §1

[23] = tested on: Calu-3; settings: Calu-3, 3 days
Protocol: as §1

[24] = tested on: HOP92; settings: HOP92, 3 days
Protocol: as §1

[25] = tested on: NCI-H1792; settings: NCI-H1792, 3 days
Protocol: as §1

[26] = tested on: NCI-H441; settings: NCI-H441, 3 days
Protocol: as §1

[27] = tested on: NCI-H2122; settings: NCI-H2122, 3 days
Protocol: as §1

[28] = tested on: NCI-H226; settings: NCI-H226, 3 days
Protocol: as §1

[29] = tested on: NCI-H1734; settings: NCI-H1734, 3 days
Protocol: as §1

[30] = tested on: SW1573; settings: SW1573, 3 days
Protocol: as §1

[31] = tested on: NCI-H2228; settings: NCI-H2228, 3 days
Protocol: as §1

[32] = tested on: NCI-H28; settings: NCI-H28, 3 days
Protocol: as §1

## CO[C@H]1CC[C@H](N2C(=O)CNc3ncc(-c4ccc(C(C)(C)O)nc4)nc32)CC1 [Compound 1, 7-(6-(2-hydroxypropan-2-yl)pyridin-3-yl)-1-((1r,4r)-4-methoxycyclohexyl)-3,4-dihydropyrazino-[2,3-b]pyrazin-2(1H)-one]
[1]
  IC50: 2.23 µM
[2]
  IC50: > 30 µM
[3]
  IC50: 0.288 µM
[4]
  IC50: 0.37 µM
[5]
  IC50: 0.456 µM
[6]
  IC50: 0.96 µM
[7]
  IC50: 0.77 µM
[8]
  IC50: > 30 µM
[9]
  IC50: 0.55 µM
[10]
  IC50: 3.03 µM
[11]
  IC50: 1.44 µM
[12]
  IC50: > 30 µM
[13]
  IC50: 0.499 µM and 0.5 µM
[14]
  IC50: 0.778 µM
[15]
  IC50: 26 µM
[16]
  IC50: 0.5 µM
[17]
  IC50: 2.01 µM
[18]
  IC50: 0.226 µM
[19]
  IC50: 2.21 µM
[20]
  IC50: 0.39 µM
[21]
  IC50: 4.74 µM
[22]
  IC50: 1.23 µM
[23]
  IC50: 0.302 µM
[24]
  IC50: > 30 µM
[25]
  IC50: 0.54 µM
[26]
  IC50: > 30 µM
[27]
  IC50: 0.9 µM
[28]
  IC50: 1.75 µM
[29]
  IC50: 1.55 µM
[30]
  IC50: 7.21 µM
[31]
  IC50: 0.264 µM
[32]
  IC50: > 30 µM
